Measured values as given in ChEMBL document CHEMBL1201862, “PubChem BioAssay data set” (2004).
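Where inhibition never reached the appropriate level, the endpoint shown equals the highest concentration tested. Otherwise, values were interpolated linearly from a five-concentration, 48-hour dose response in 96-well plates. Here, GI50 denotes the concentration required for 50% inhibition of growth.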 Calls of active or inactive are those of the source. Cut-off read from the data, not from the text of the source: active = GI50 up to about 1.1 µM and inactive = higher.

Columns and labels:
Assay in all cases: NCI anticancer screen, dose series, 48 h
DMS-273 = test system: DMS-273
HT-29 = test system: HT-29
OVCAR-3 = test system: OVCAR-3
Malme-3M = test system: Malme-3M
A498 = test system: A498
SNB-75 = test system: SNB-75
SNB-19 = test system: SNB-19
OVCAR-8 = test system: OVCAR-8
KM12 = test system: KM12
SF-295 = test system: SF-295
RXF 393 = test system: RXF 393
LXFL 529 = test system: LXFL 529
SK-MEL-5 = test system: SK-MEL-5
NCI-H226 = test system: NCI-H226
TK-10 = test system: TK-10
IGROV-1 = test system: IGROV-1
HCC 2998 = test system: HCC 2998
UO-31 = test system: UO-31
SF-268 = test system: SF-268
NCI-H522 = test system: NCI-H522
XF498 = test system: XF498
SK-MEL-2 = test system: SK-MEL-2
RXF 631 = test system: RXF 631
SW-620 = test system: SW-620
SR = test system: SR
U-251 = test system: U-251
M14 = test system: M14
NCI-H23 = test system: NCI-H23
UACC-257 = test system: UACC-257
NCI-H460 = test system: NCI-H460
COLO 205 = test system: COLO 205
SN12C = test system: SN12C
K562 = test system: K562
SNB-78 = test system: SNB-78
A549 = test system: A549
KM-20L2 = test system: KM-20L2
CCRF-CEM = test system: CCRF-CEM
CAKI-1 = test system: CAKI-1
DLD-1 = test system: DLD-1
OVCAR-4 = test system: OVCAR-4
SF-539 = test system: SF-539
SK-OV-3 = test system: SK-OV-3
HCT-116 = test system: HCT-116
EKVX = test system: EKVX
SK-MEL-28 = test system: SK-MEL-28
M19-MEL = test system: M19-MEL
MOLT-4 = test system: MOLT-4
UACC-62 = test system: UACC-62
ACHN = test system: ACHN
HCT-15 = test system: HCT-15
OVCAR-5 = test system: OVCAR-5

CN1C(=N\S(=O)(=O)c2ccc(Cl)cc2)/C(=N/N=P(c2ccccc2)(c2ccccc2)c2ccccc2)c2ccccc21
GI50 (DMS-273): > 100 µM (inactive) | GI50 (HT-29): > 100 µM (inactive) | GI50 (OVCAR-3): > 100 µM (inactive) | GI50 (Malme-3M): > 100 µM (inactive) | GI50 (A498): > 100 µM (inactive) | GI50 (SNB-75): > 100 µM (inactive) | GI50 (SNB-19): > 100 µM (inactive) | GI50 (OVCAR-8): > 100 µM (inactive) | GI50 (KM12): > 100 µM (inactive) | GI50 (SF-295): > 100 µM (inactive) | GI50 (RXF 393): > 100 µM (inactive) | GI50 (LXFL 529): > 100 µM (inactive) | GI50 (SK-MEL-5): > 100 µM (inactive) | GI50 (NCI-H226): 73.3 µM (inactive) | GI50 (TK-10): > 100 µM (inactive) | GI50 (IGROV-1): > 100 µM (inactive) | GI50 (HCC 2998): > 100 µM (inactive) | GI50 (UO-31): > 100 µM (inactive) | GI50 (SF-268): > 100 µM (inactive) | GI50 (NCI-H522): > 100 µM (inactive) | GI50 (XF498): > 100 µM (inactive) | GI50 (SK-MEL-2): > 100 µM (inactive) | GI50 (RXF 631): > 100 µM (inactive) | GI50 (SW-620): > 100 µM (inactive) | GI50 (SR): > 100 µM (inactive) | GI50 (U-251): > 100 µM (inactive) | GI50 (M14): > 100 µM (inactive) | GI50 (NCI-H23): > 100 µM (inactive) | GI50 (UACC-257): > 100 µM (inactive) | GI50 (NCI-H460): > 100 µM (inactive) | GI50 (COLO 205): > 100 µM (inactive) | GI50 (SN12C): > 100 µM (inactive) | GI50 (K562): > 100 µM (inactive) | GI50 (SNB-78): > 100 µM (inactive) | GI50 (A549): 95.7 µM (inactive) | GI50 (KM-20L2): > 100 µM (inactive) | GI50 (CCRF-CEM): > 100 µM (inactive) | GI50 (CAKI-1): > 100 µM (inactive) | GI50 (DLD-1): > 100 µM (inactive) | GI50 (OVCAR-4): > 100 µM (inactive) | GI50 (SF-539): > 100 µM (inactive) | GI50 (SK-OV-3): > 100 µM (inactive) | GI50 (HCT-116): > 100 µM (inactive) | GI50 (EKVX): > 100 µM (inactive) | GI50 (SK-MEL-28): > 100 µM (inactive) | GI50 (M19-MEL): > 100 µM (inactive) | GI50 (MOLT-4): > 100 µM (inactive) | GI50 (UACC-62): > 100 µM (inactive) | GI50 (ACHN): > 100 µM (inactive) | GI50 (HCT-15): > 100 µM | GI50 (OVCAR-5): > 100 µM (inactive)
